Reference: patent US20250230193A1, “CYCLIC COMPOUND HAVING SELECTIVE KRAS INHIBITORY EFFECT ON HRAS AND NRAS” (CHUGAI SEIYAKU KABUSHIKI KAISHA, priority 2022, published 2025)

Experiments:
[1] = target: GDP-bound NRAS wild-type protein (Homo sapiens, UniProt P01111); assay: Binding to NRAS by surface plasmon resonance (SPR), Single Cycle Kinetics; details: KD ratio, GDP-bound NRAS wild-type vs GDP-bound KRAS wild-type, SPR
[2] = target: GDP-bound HRAS wild-type protein (Homo sapiens, UniProt P01112); assay: Binding to HRAS by surface plasmon resonance (SPR), Single Cycle Kinetics; details: KD ratio, GDP-bound HRAS wild-type vs GDP-bound KRAS wild-type, SPR
GDP-bound HRAS wild-type protein, sequence (P01112 whole entry): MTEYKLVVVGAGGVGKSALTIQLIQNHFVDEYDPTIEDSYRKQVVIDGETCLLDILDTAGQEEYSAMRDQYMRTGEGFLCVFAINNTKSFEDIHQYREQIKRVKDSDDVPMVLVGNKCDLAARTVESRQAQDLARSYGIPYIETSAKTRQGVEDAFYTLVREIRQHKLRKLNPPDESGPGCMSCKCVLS

GDP-bound NRAS wild-type protein, sequence (P01111 whole entry): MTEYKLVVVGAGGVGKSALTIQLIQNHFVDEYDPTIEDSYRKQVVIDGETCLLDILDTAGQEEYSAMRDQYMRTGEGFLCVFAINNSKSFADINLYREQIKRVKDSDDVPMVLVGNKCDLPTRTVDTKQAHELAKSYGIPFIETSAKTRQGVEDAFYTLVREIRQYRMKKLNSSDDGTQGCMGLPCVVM

Row | Compound | NRAS/KRAS (ratio of KD value with respect to NRAS to KD value with respect to KRAS) [1] | HRAS/KRAS (ratio of KD value with respect to HRAS to KD value with respect to KRAS) [2]
1 | CC[C@H](C)[C@@H]1NC(=O)[C@H](CC)N(C)C(=O)C[C@@H](C(=O)N(C)C)N(C)C(=O)[C@H](C2CCCC2)N(C)C(=O)C2(CCC2)NC(=O)[C@H](COCCC(C)C)N(C)C(=O)[C@H](CCc2cc(F)c(C(F)(F)F)c(F)c2)NC(=O)CN(C)C(=O)[C@H](Cc2ccc(C(F)(F)F)cc2)N2CC/C=C\C[C@@H](C2=O)N(C)C(=O)CN(C)C1=O [PP1148] | A (a compound having 10 or more and less than 20 is denoted as A) | A (a compound having 10 or more and less than 20 is denoted as A)
2 | CC[C@H](C)[C@@H]1NC(=O)[C@H](CC)N(C)C(=O)C[C@@H](C(=O)N(C)C)N(C)C(=O)[C@H](C2CCCC2)N(C)C(=O)C2(CCC2)NC(=O)[C@H](CC2CCCCC2)N(C)C(=O)[C@H](CCc2cc(F)c(C(F)(F)F)c(F)c2)NC(=O)CN(C)C(=O)[C@H](Cc2ccc(C(F)(F)F)cc2)N2CC/C=C\C[C@@H](C2=O)N(C)C(=O)CN(C)C1=O [PP1149] | A (a compound having 10 or more and less than 20 is denoted as A) | A (a compound having 10 or more and less than 20 is denoted as A)
3 | CCCC[C@H]1C(=O)NC2(CCC2)C(=O)N(C)[C@@H](C2CCCC2)C(=O)N(C)[C@H](C(=O)N(C)C)CC(=O)N(C)[C@@H](CC)C(=O)N[C@@H]([C@@H](C)CC)C(=O)N(C)CC(=O)N(C)[C@H]2C/C=C\CCN(C2=O)[C@@H](Cc2ccc(C(F)(F)F)cc2)C(=O)N(C)CC(=O)N[C@@H](CCc2cc(F)c(C(F)(F)F)c(F)c2)C(=O)N1C [PP1150] | AA (a compound having 20 or more is denoted as AA) | A (a compound having 10 or more and less than 20 is denoted as A)
4 | CC[C@H](C)[C@@H]1NC(=O)[C@H](CC(C)C)N(C)C(=O)C[C@@H](C(=O)N2C[C@@H](C)O[C@@H](C)C2)N(C)C(=O)[C@H](C2CCCC2)N(C)C(=O)C2(CCCC2)NC(=O)[C@@H]2CCCN2C(=O)[C@H](CCc2ccc(C(F)(F)F)c(Cl)c2)NC(=O)CN(C)C(=O)[C@H](Cc2ccc(F)cc2)N2CCCCC[C@@H](C2=O)N(C)C(=O)CN(C)C1=O [PP1151] | B (a compound having 3 or more and less than 10 is denoted as B) | B (a compound having 3 or more and less than 10 is denoted as B)
5 | CCO[C@@H]1C[C@H]2C(=O)NC3(CCC3)C(=O)N(C)[C@@H](C3CCCC3)C(=O)N(C)[C@H](C(=O)N3C[C@@H](C)O[C@@H](C)C3)CC(=O)N(C)[C@@H](CC(C)C)C(=O)N[C@@H]([C@@H](C)CC)C(=O)N(C)CC(=O)N(C)[C@H]3CCCCCN(C3=O)[C@@H](Cc3ccc(F)cc3)C(=O)N(C)CC(=O)N[C@@H](CCc3ccc(C(F)(F)F)c(Cl)c3)C(=O)N2C1 [PP1153] | B (a compound having 3 or more and less than 10 is denoted as B) | B (a compound having 3 or more and less than 10 is denoted as B)
6 | CCO[C@@H]1C[C@H]2C(=O)NC3(CCC3)C(=O)N(C)[C@@H](C3CCCC3)C(=O)N(C)[C@H](C(=O)N(C)C)CC(=O)N(C)[C@@H](Cc3ccccc3C#N)C(=O)N[C@@H]([C@@H](C)CC)C(=O)N(C)CC(=O)N(C)[C@H]3CCCCCN(C3=O)[C@@H](Cc3ccc(F)cc3)C(=O)N(C)CC(=O)N[C@@H](CCc3cc(F)c(C(F)(F)F)c(F)c3)C(=O)N2C1 [PP1155] | B (a compound having 3 or more and less than 10 is denoted as B) | B (a compound having 3 or more and less than 10 is denoted as B)
7 | CCO[C@@H]1C[C@H]2C(=O)NC3(CCC3)C(=O)N(C)[C@@H](C3CCCC3)C(=O)N(C)[C@H](C(=O)N(C)C)CC(=O)N(C)[C@@H](Cc3cccc(C#N)c3)C(=O)N[C@@H]([C@@H](C)CC)C(=O)N(C)CC(=O)N(C)[C@H]3CCCCCN(C3=O)[C@@H](Cc3ccc(F)cc3)C(=O)N(C)CC(=O)N[C@@H](CCc3cc(F)c(C(F)(F)F)c(F)c3)C(=O)N2C1 [PP1156] | B (a compound having 3 or more and less than 10 is denoted as B) | B (a compound having 3 or more and less than 10 is denoted as B)
8 | CCO[C@@H]1C[C@H]2C(=O)NC3(CCC3)C(=O)N(C)[C@@H](C3CCCC3)C(=O)N(C)[C@H](C(=O)N(C)C)CC(=O)N(C)[C@@H](Cc3ccc(C#N)cc3)C(=O)N[C@@H]([C@@H](C)CC)C(=O)N(C)CC(=O)N(C)[C@H]3CCCCCN(C3=O)[C@@H](Cc3ccc(F)cc3)C(=O)N(C)CC(=O)N[C@@H](CCc3cc(F)c(C(F)(F)F)c(F)c3)C(=O)N2C1 [PP1157] | B (a compound having 3 or more and less than 10 is denoted as B) | B (a compound having 3 or more and less than 10 is denoted as B)
9 | CCO[C@@H]1C[C@H]2C(=O)NC3(CCC3)C(=O)N(C)[C@@H](C3CCCC3)C(=O)N(C)[C@H](C(=O)N(C)C)CC(=O)N(C)[C@@H](Cc3ccc(Cl)c(Cl)c3)C(=O)N[C@@H]([C@@H](C)CC)C(=O)N(C)CC(=O)N(C)[C@H]3CCCCCN(C3=O)[C@@H](Cc3ccc(F)cc3)C(=O)N(C)CC(=O)N[C@@H](CCc3cc(F)c(C(F)(F)F)c(F)c3)C(=O)N2C1 [PP1158] | B (a compound having 3 or more and less than 10 is denoted as B) | B (a compound having 3 or more and less than 10 is denoted as B)
10 | CCCO[C@@H]1C[C@H]2C(=O)NC3(CCC3)C(=O)N(C)[C@@H](C3CCCC3)C(=O)N(C)[C@H](C(=O)N3CCOCC3)CC(=O)N(C)[C@@H](CC(C)C)C(=O)N[C@@H]([C@@H](C)CC)C(=O)N(C)CC(=O)N(C)[C@H]3CCCCN(C3=O)[C@@H](Cc3ccc(C(F)(F)F)cc3)C(=O)N(C)CC(=O)N[C@@H](CCc3cc(F)c(C(F)(F)F)c(F)c3)C(=O)N2C1 [PP1159] | C (A compound having a KD ratio of 0.1 or more and less than 3 is denoted as C) | B (a compound having 3 or more and less than 10 is denoted as B)
11 | CC[C@H](C)[C@@H]1NC(=O)[C@H](CC(C)C)N(C)C(=O)C[C@@H](C(=O)N2CCOCC2)N(C)C(=O)[C@H](C2CCCC2)N(C)C(=O)C2(CCC2)NC(=O)[C@@H]2C[C@@H](OCC(C)C)CN2C(=O)[C@H](CCc2cc(F)c(C(F)(F)F)c(F)c2)NC(=O)CN(C)C(=O)[C@H](Cc2ccc(C(F)(F)F)cc2)N2CCCC[C@@H](C2=O)N(C)C(=O)CN(C)C1=O [PP1160] | B (a compound having 3 or more and less than 10 is denoted as B) | B (a compound having 3 or more and less than 10 is denoted as B)
12 | CCCO[C@@H]1C[C@H]2C(=O)NC3(CCC3)C(=O)N(C)[C@@H](C3CCCC3)C(=O)N(C)[C@H](C(=O)N3CCOCC3)CC(=O)N(C)[C@@H](CC(C)C)C(=O)N[C@@H]([C@@H](C)CC)C(=O)N(C)CC(=O)N(C)[C@H]3CCCCCN(C3=O)[C@@H](Cc3ccc(C(F)(F)F)cc3)C(=O)N(C)CC(=O)N[C@@H](CCc3cc(F)c(C(F)(F)F)c(F)c3)C(=O)N2C1 [PP1161] | B (a compound having 3 or more and less than 10 is denoted as B) | B (a compound having 3 or more and less than 10 is denoted as B)
13 | CCO[C@@H]1C[C@H]2C(=O)NC3(CCC3)C(=O)N(C)[C@@H](C3CCCC3)C(=O)N(C)[C@H](C(=O)N3CCOCC3)CC(=O)N(C)[C@@H](Cc3cccs3)C(=O)N[C@@H]([C@@H](C)CC)C(=O)N(C)CC(=O)N(C)[C@H]3CCCCCN(C3=O)[C@@H](Cc3ccc(C(F)(F)F)cc3)C(=O)N(C)CC(=O)N[C@@H](CCc3cc(F)c(C(F)(F)F)c(F)c3)C(=O)N2C1 [PP1163] | B (a compound having 3 or more and less than 10 is denoted as B) | B (a compound having 3 or more and less than 10 is denoted as B)
14 | CCO[C@@H]1C[C@H]2C(=O)NC3(CCC3)C(=O)N(C)[C@@H](C3CCCC3)C(=O)N(C)[C@H](C(=O)N3CCOCC3)CC(=O)N(C)[C@@H](Cc3ccsc3)C(=O)N[C@@H]([C@@H](C)CC)C(=O)N(C)CC(=O)N(C)[C@H]3CCCCCN(C3=O)[C@@H](Cc3ccc(C(F)(F)F)cc3)C(=O)N(C)CC(=O)N[C@@H](CCc3cc(F)c(C(F)(F)F)c(F)c3)C(=O)N2C1 [PP1164] | B (a compound having 3 or more and less than 10 is denoted as B) | B (a compound having 3 or more and less than 10 is denoted as B)
15 | CCO[C@@H]1C[C@H]2C(=O)NC3(CCC3)C(=O)N(C)[C@@H](C3CCCC3)C(=O)N(C)[C@H](C(=O)N3CCOCC3)CC(=O)N(C)[C@@H](Cc3ccccc3C#N)C(=O)N[C@@H]([C@@H](C)CC)C(=O)N(C)CC(=O)N(C)[C@H]3CCCCCN(C3=O)[C@@H](Cc3ccc(C(F)(F)F)cc3)C(=O)N(C)CC(=O)N[C@@H](CCc3cc(F)c(C(F)(F)F)c(F)c3)C(=O)N2C1 [PP1165] | A (a compound having 10 or more and less than 20 is denoted as A) | B (a compound having 3 or more and less than 10 is denoted as B)
